Laboratory results: paper PMC8037814, “Polymorphic Characterization, Pharmacokinetics, and Anti-Inflammatory Activity of Ginsenoside Compound K Polymorphs” (Molecules, 2021)
“And” between values parts separate entries of the source, which are not always exact repeats. Equal entries are not always repeated. Where two headings read alike, the source gives them in different places.

Test: Pharmacokinetics after intravenous administration of CK in rats (10 mg/kg)
Type: in vivo, Sprague-Dawley rats
Conditions: i.v. 10 mg/kg; for concentration at 0.5 min / concentration at 0.05 h / concentration at 8 min / concentration at 0.25 h / concentration at 0.5 h / concentration at 1 h / concentration at 2 h / concentration at 4 h / concentration at 6 h / concentration at 9 h: read-out: Plasma concentrations of CK; for MRT last: read-out: MRT(0-t); for MRT inf: read-out: MRT(0-∞); for half-life: read-out: t1/2z (converted)
Method: All samples were analyzed with a triple quadrupole LC-MS/MS (API 4000 LC-MS/MS, AB Sciex, Framingham, MA, USA) coupled with an Agilent 1200 HPLC system (Agilent Technologies, Palo Alto, CA, USA). The MS was equipped with an electrospray system (ESI). The N2 gas temperature and ion-spray voltage were set to 550 °C and 4.5 kV, respectively. CK was measured in multiple reaction monitoring (MRM) mode using a negative electrospray ionization source at m/z 667.4 → 621.2 for CK (CID 25.6 v) and m/z 271.2 → 228.8 for internal standard (IS, (E)-5-(4-fluorostyryl)-2-isopropylbenzene-1,3-diol, Welichem Biotech Inc., Wayburne Drive Burnaby, BC, Canada) (CID 28.3 v) with a dwell time of 0.1 s.
Rats were divided randomly into 5 groups of six animals each (sex in half) and given 7 days to acclimatize to the facility before the experiments began. The four forms of CK were suspended in 0.5% sodium carboxymethyl cellulose (CMC-Na) solution and orally administered to rats at a dose of 20 mg/kg. A CK solution in a mixed solvent of dimethyl sulfoxide (DMSO)/castor oil/physiologic saline (3:5:92, v/v) was intravenously administered to the remaining group via the tail vein at a dose of 10 mg/kg. Blood samples were collected by retro-orbital puncture at the following times: 0.167, 0.333, 0.667, 1, 2, 3, 4, 6, 9, 12, and 24 h for the oral administration, and at 0.0083, 0.05, 0.133, 0.25, 0.5, 1, 2, 4, 6, and 9 h for the intravenous administration. Plasma samples were obtained by centrifuging a heparinized blood tube at 4000 rpm for 5 min and then stored at −70 °C until analysis.
The procedure for drug extraction from plasma samples was as follows: 0.2 mL acetonitrile, 0.2 mL plasma sample, and 10 μL IS (1 µg/mL) were added into a 1.5 mL Eppendorf-type tube. This mixture was vortexed for 1 min and then treated with 0.8 mL of methyl tert-butyl ether (MTBE) to precipitate the plasma proteins. After a mechanical vortex for 1 min and subsequent centrifugation (4000 rpm, 5 min), 0.8 mL of the supernatant was transferred and blow-dried with N2 at 40 °C in a water bath. Finally, the residue was dissolved in 120 μL of mobile phase, and then 10 μL was subjected to HPLC for analysis. […] Intra- and inter-day precision and accuracy never exceeded 15% by analyzing six replicate samples.
The CK pharmacokinetic parameters in rats, including the area under the curve (AUC(0–t) and AUC(0–∞)), mean residence time (MRT(0–t) and MRT(0–∞)), maximum concentration (Cmax), time to maximum concentration (Tmax), half-life (t1/2), apparent distribution volume (V), and total plasma clearance (CL), were derived from plasma concentration-time curves by using non-compartmental analysis (NCA) with DAS 2.0 software (Drug And Statistics, Mathematical Pharmacology Professional Committee of China, Shanghai, China). The absolute bioavailability (Fabs) was calculated from the dose-adjusted ratio of AUCp.o. to AUCi.v.. One-way analysis of variance (ANOVA) by SPSS 11.5 (SPSS Inc., Chicago, IL, USA) was conducted to compare the primary PK parameters.

[1] = female rats, individual rats 1-3, 10 mg/kg
[2] = female, Sprague-Dawley, rat, plasma, iv, 10 mg/kg, female rats, Mean±SD
[3] = male rats, individual rats 1-3, 10 mg/kg
[4] = male, Sprague-Dawley, rat, plasma, iv, 10 mg/kg, male rats, Mean±SD
[5] = male, Sprague-Dawley, rat, plasma, iv, 10 mg/kg, male rats, individual rats 1-3

## CC(C)=CCCC(C)(OC1OC(CO)C(O)C(O)C1O)C1CCC2(C)C1C(O)CC1C3(C)CCC(O)C(C)(C)C3CCC12C [CK, 20-O-β-D-glucopyranosyl-20(S)-protopanaxadiol]
Female rats, 0.5 min, individual rats 1-3, 10 mg/kg
  Plasma concentrations of CK: 54838.90 ng/mL and 127905.96 ng/mL and 48362.17 ng/mL
Female rats, 0.05 h, individual rats 1-3, 10 mg/kg
  Plasma concentrations of CK: 15185.26 ng/mL and 25786.82 ng/mL and 6748.70 ng/mL
Female rats, 8 min, individual rats 1-3, 10 mg/kg
  Plasma concentrations of CK: 1631.02 ng/mL and 4937.02 ng/mL and 980.77 ng/mL
Female rats, 0.25 h, individual rats 1-3, 10 mg/kg
  Plasma concentrations of CK: 672.83 ng/mL and 1554.81 ng/mL and 553.32 ng/mL
Female rats, 0.5 h, individual rats 1-3, 10 mg/kg
  Plasma concentrations of CK: 411.75 ng/mL and 359.74 ng/mL
Female rats, 1 h, individual rats 1-3, 10 mg/kg
  Plasma concentrations of CK: 117.01 ng/mL and 136.73 ng/mL and 243.80 ng/mL
Female rats, 2 h, individual rats 1-3, 10 mg/kg
  Plasma concentrations of CK: 136.06 ng/mL and 82.52 ng/mL
Female rats, 4 h, individual rats 1-3, 10 mg/kg
  Plasma concentrations of CK: 63.54 ng/mL and 48.16 ng/mL and 99.22 ng/mL
Female rats, 6 h, individual rats 1-3, 10 mg/kg
  Plasma concentrations of CK: 27.72 ng/mL and 22.95 ng/mL and 47.61 ng/mL
Female rats, 9 h, individual rats 1-3, 10 mg/kg
  Plasma concentrations of CK: 27.31 ng/mL and 14.83 ng/mL and 34.93 ng/mL
Female rats, Mean±SD
  CLz/F: 92.7 ± 34.3 mL/min/kg
  Vz/F: 17.75 ± 7.49 L/kg
[1]
  AUC(0-t): 3164.67 ng·h/mL and 6150.84 ng·h/mL and 2722.08 ng·h/mL
  AUC(0-∞): 3206.10 ng·h/mL and 6173.20 ng·h/mL and 2779.29 ng·h/mL
  CLz/F: 104 mL/min/kg and 54 mL/min/kg and 120 mL/min/kg
  MRT(0-t): 34.2 min and 15.6 min and 60 min
  MRT(0-∞): 56.4 min and 20.4 min and 86.4 min
  Vz/F: 21.99 L/kg and 9.10 L/kg and 22.17 L/kg
  t1/2z: 117 min and 128 min
female, Sprague-Dawley, rat, plasma, iv, 10 mg/kg, female rats, 0.5 min, Mean±SD
  concentration at 0.5 min: 77000 ± 44200 ng/mL
female, Sprague-Dawley, rat, plasma, iv, 10 mg/kg, female rats, 0.05 h, Mean±SD
  concentration at 0.05 h: 15900 ± 9540 ng/mL
female, Sprague-Dawley, rat, plasma, iv, 10 mg/kg, female rats, 8 min, Mean±SD
  concentration at 8 min: 2520 ± 2120 ng/mL
female, Sprague-Dawley, rat, plasma, iv, 10 mg/kg, female rats, 0.25 h, Mean±SD
  concentration at 0.25 h: 927 ± 547 ng/mL
female, Sprague-Dawley, rat, plasma, iv, 10 mg/kg, female rats, 0.5 h, Mean±SD
  concentration at 0.5 h: 354 ± 60.4 ng/mL
female, Sprague-Dawley, rat, plasma, iv, 10 mg/kg, female rats, 0.5 h, individual rats 1-3
  concentration at 0.5 h: 291 ng/mL
female, Sprague-Dawley, rat, plasma, iv, 10 mg/kg, female rats, 1 h, Mean±SD
  concentration at 1 h: 166 ± 68.2 ng/mL
female, Sprague-Dawley, rat, plasma, iv, 10 mg/kg, female rats, 2 h, Mean±SD
  concentration at 2 h: 102 ± 29.8 ng/mL
female, Sprague-Dawley, rat, plasma, iv, 10 mg/kg, female rats, 2 h, individual rats 1-3
  concentration at 2 h: 86.6 ng/mL
female, Sprague-Dawley, rat, plasma, iv, 10 mg/kg, female rats, 4 h, Mean±SD
  concentration at 4 h: 70.3 ± 26.2 ng/mL
female, Sprague-Dawley, rat, plasma, iv, 10 mg/kg, female rats, 6 h, Mean±SD
  concentration at 6 h: 32.8 ± 13.1 ng/mL
female, Sprague-Dawley, rat, plasma, iv, 10 mg/kg, female rats, 9 h, Mean±SD
  concentration at 9 h: 25.7 ± 10.1 ng/mL
[2]
  AUC(0-inf): 4050 ± 1850 ng·h/mL
  MRT last: 36.6 ± 22.2 min
  MRT inf: 54.6 ± 33 min
  half-life: 131 ± 15 min
female, Sprague-Dawley, rat, plasma, iv, 10 mg/kg, female rats, Mean±SD, read-out: AUC(0-t)
  AUC(0-t): 4010 ± 1870 ng·h/mL
female, Sprague-Dawley, rat, plasma, iv, 10 mg/kg, female rats, individual rats 1-3
  half-life: 146 min
Male rats, 0.5 min, individual rats 1-3, 10 mg/kg
  Plasma concentrations of CK: 67670.83 ng/mL and 69233.93 ng/mL
Male rats, 0.05 h, individual rats 1-3, 10 mg/kg
  Plasma concentrations of CK: 11403.43 ng/mL and 18155.87 ng/mL
Male rats, 8 min, individual rats 1-3, 10 mg/kg
  Plasma concentrations of CK: 1214.82 ng/mL and 3002.82 ng/mL and 2609.85 ng/mL
Male rats, 0.25 h, individual rats 1-3, 10 mg/kg
  Plasma concentrations of CK: 664.52 ng/mL and 1307.24 ng/mL
Male rats, 0.5 h, individual rats 1-3, 10 mg/kg
  Plasma concentrations of CK: 214.44 ng/mL and 391.89 ng/mL
Male rats, 1 h, individual rats 1-3, 10 mg/kg
  Plasma concentrations of CK: 75.42 ng/mL and 107.64 ng/mL
Male rats, 2 h, individual rats 1-3, 10 mg/kg
  Plasma concentrations of CK: 41.16 ng/mL and 54.90 ng/mL
Male rats, 4 h, individual rats 1-3, 10 mg/kg
  Plasma concentrations of CK: 42.63 ng/mL and 32.27 ng/mL and 85.89 ng/mL
Male rats, 6 h, individual rats 1-3, 10 mg/kg
  Plasma concentrations of CK: 14.03 ng/mL and 27.30 ng/mL
Male rats, 9 h, individual rats 1-3, 10 mg/kg
  Plasma concentrations of CK: 11.73 ng/mL and 16.36 ng/mL
Male rats, Mean±SD
  CLz/F: 90 ± 18 mL/min/kg
  Vz/F: 24.21 ± 7.69 L/kg
[3]
  AUC(0-t): 2963.73 ng·h/mL and 3980.16 ng·h/mL
  AUC(0-∞): 3012.98 ng·h/mL and 4074.46 ng·h/mL
  CLz/F: 77.7 mL/min/kg and 111 mL/min/kg and 81.8 mL/min/kg
  MRT(0-t): 19.2 min and 27.2 min
  MRT(0-∞): 22.8 min and 32.4 min and 47.4 min
  Vz/F: 15.34 L/kg and 28.92 L/kg and 28.37 L/kg
  t1/2z: 181 min and 241 min
male, Sprague-Dawley, rat, plasma, iv, 10 mg/kg, male rats, 0.5 min, Mean±SD
  concentration at 0.5 min: 71700 ± 5620 ng/mL
male, Sprague-Dawley, rat, plasma, iv, 10 mg/kg, male rats, 0.5 min, individual rats 1-3
  concentration at 0.5 min: 78100 ng/mL
male, Sprague-Dawley, rat, plasma, iv, 10 mg/kg, male rats, 0.05 h, Mean±SD
  concentration at 0.05 h: 17100 ± 5230 ng/mL
male, Sprague-Dawley, rat, plasma, iv, 10 mg/kg, male rats, 0.05 h, individual rats 1-3
  concentration at 0.05 h: 21700 ng/mL
male, Sprague-Dawley, rat, plasma, iv, 10 mg/kg, male rats, 8 min, Mean±SD
  concentration at 8 min: 2280 ± 940 ng/mL
male, Sprague-Dawley, rat, plasma, iv, 10 mg/kg, male rats, 0.25 h, Mean±SD
  concentration at 0.25 h: 1080 ± 359 ng/mL
male, Sprague-Dawley, rat, plasma, iv, 10 mg/kg, male rats, 0.25 h, individual rats 1-3
  concentration at 0.25 h: 1260 ng/mL
male, Sprague-Dawley, rat, plasma, iv, 10 mg/kg, male rats, 0.5 h, Mean±SD
  concentration at 0.5 h: 333 ± 103 ng/mL
male, Sprague-Dawley, rat, plasma, iv, 10 mg/kg, male rats, 0.5 h, individual rats 1-3
  concentration at 0.5 h: 393 ng/mL
male, Sprague-Dawley, rat, plasma, iv, 10 mg/kg, male rats, 1 h, Mean±SD
  concentration at 1 h: 95.5 ± 17.5 ng/mL
male, Sprague-Dawley, rat, plasma, iv, 10 mg/kg, male rats, 1 h, individual rats 1-3
  concentration at 1 h: 103 ng/mL
male, Sprague-Dawley, rat, plasma, iv, 10 mg/kg, male rats, 2 h, Mean±SD
  concentration at 2 h: 52.1 ± 9.87 ng/mL
male, Sprague-Dawley, rat, plasma, iv, 10 mg/kg, male rats, 2 h, individual rats 1-3
  concentration at 2 h: 60.3 ng/mL
male, Sprague-Dawley, rat, plasma, iv, 10 mg/kg, male rats, 4 h, Mean±SD
  concentration at 4 h: 53.6 ± 28.4 ng/mL
male, Sprague-Dawley, rat, plasma, iv, 10 mg/kg, male rats, 6 h, Mean±SD
  concentration at 6 h: 20.3 ± 6.66 ng/mL
male, Sprague-Dawley, rat, plasma, iv, 10 mg/kg, male rats, 6 h, individual rats 1-3
  concentration at 6 h: 19.7 ng/mL
male, Sprague-Dawley, rat, plasma, iv, 10 mg/kg, male rats, 9 h, Mean±SD
  concentration at 9 h: 12.4 ± 3.64 ng/mL
male, Sprague-Dawley, rat, plasma, iv, 10 mg/kg, male rats, 9 h, individual rats 1-3
  concentration at 9 h: 9.16 ng/mL
[4]
  AUC(0-inf): 3790 ± 685 ng·h/mL
  MRT last: 21.6 ± 4.8 min
  MRT inf: 34.2 ± 12.6 min
  half-life: 186 ± 52.2 min
male, Sprague-Dawley, rat, plasma, iv, 10 mg/kg, male rats, Mean±SD, read-out: AUC(0-t)
  AUC(0-t): 3740 ± 684 ng·h/mL
[5]
  AUC(0-inf): 4290 ng·h/mL
  MRT last: 18 min
  half-life: 137 min
male, Sprague-Dawley, rat, plasma, iv, 10 mg/kg, male rats, individual rats 1-3, read-out: AUC(0-t)
  AUC(0-t): 4260 ng·h/mL
